According to US8362249B2, “CXCR3 receptor antagonists” (Boehringer Ingelheim International GmbH, priority 2009, dated 2013):

Assays:
CXCR3 = CXCR3 (Macaca fascicularis, UniProt A0A2K5UV19); assay: functional cellular assay measuring calcium flux in CXCR3 transfected cells (block of CXCR3/IP-10 interaction); type: cell-based; conditions: IP-10 induced intracellular calcium flux; Cyno-CHO cells stably expressing recombinant CXCR3 and G-alpha-16
Outline: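 Cyno-CHO cells stably co-expressing recombinant CXCR3 and G-alpha-16, loaded with Ca-4 dye (HBSS, 10 mM HEPES pH 7.4, 2 mM probenecid) for 1 h at 37 °C. Compound (10 microM final) preincubated 15 min at room temperature, then IP-10 added at EC80. Intracellular calcium flux read by fluorescence (ex 480/em 540 nm).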

[1] = test system: LDL receptor knockout model; conditions: dosed prophylactically; cited from earlier work

Chain of CXCR3 (A0A2K5UV19 entry or part of it): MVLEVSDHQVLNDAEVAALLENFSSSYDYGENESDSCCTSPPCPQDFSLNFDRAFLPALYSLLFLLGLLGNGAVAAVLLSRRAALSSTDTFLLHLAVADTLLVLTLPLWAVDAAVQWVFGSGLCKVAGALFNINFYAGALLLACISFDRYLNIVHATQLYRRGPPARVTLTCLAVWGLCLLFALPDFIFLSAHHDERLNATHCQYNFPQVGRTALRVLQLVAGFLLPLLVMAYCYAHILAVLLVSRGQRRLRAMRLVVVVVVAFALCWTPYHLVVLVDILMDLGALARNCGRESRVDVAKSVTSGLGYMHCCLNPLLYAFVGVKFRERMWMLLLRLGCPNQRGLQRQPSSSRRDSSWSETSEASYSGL

IC50 (CXCR3) | Structure (SMILES) | atherosclerotic lesion formation [1]
3.4 nM | O=C(Nc1ccccc1)c1ccccc1N1CCN(C(=O)Cn2ccc3cccnc32)CC1 [N-Phenyl-2-[4-(2-pyrrolo[2,3-b]pyridin-1-yl-acetyl)-piperazin-1-yl]-benzamide] | –
8.6 nM | Cc1cc(C)n(CC(=O)N2CCN(c3ccccc3C(=O)Nc3nc4c(s3)COCC4)CC2)n1 [N-(6,7-Dihydro-4H-pyrano[4,3-d]thiazol-2-yl)-2-{4-[2-(3,5-dimethyl-pyrazol-1-yl)-acetyl]-piperazin-1-yl}-benzamide] | –
15 nM | Cc1nn(CC(=O)N2CCCN(c3ncc(Cl)cc3NC(=O)c3cccc(Cl)c3)CC2)c(C)c1Cl [3-Chloro-N-(5-chloro-2-{4-[2-(4-chloro-3,5-dimethyl-pyrazol-1-yl)-acetyl]-[1,4]diazepan-1-yl}-pyridin-3-yl)-benzamide] | –
4 nM | Cn1c(=O)n(CC(=O)N2CCN(c3ccccc3C(=O)Nc3ccncc3)CC2)c2ccccc21 [2-{4-[2-(3-Methyl-2-oxo-2,3-dihydro-benzoimidazol-1-yl)-acetyl]-piperazin-1-yl}-N-pyridin-4-yl-benzamide] | –
18 nM | CCn1nc(C)cc1C(=O)NCC(=O)N1CCN(c2ccccc2C(=O)Nc2cccnc2)CC1 [2-Ethyl-5-methyl-2H-pyrazole-3-carboxylic acid (2-oxo-2-{4-[2-(pyridin-3-ylcarbamoyl)-phenyl]-piperazin-1-yl}-ethyl)-amide] | –
5.5 nM | Cc1cc(C)n(CC(=O)N2CCN(c3ccccc3C(=O)Nc3ccccc3F)CC2)n1 [2-{4-[2-(3,5-Dimethyl-pyrazol-1-yl)-acetyl]-piperazin-1-yl}-N-(2-fluoro-phenyl)-benzamide] | –
11 nM | COc1ccc(C(=O)NCC(=O)N2CCN(c3ccccc3C(=O)Nc3cccnc3)CC2)cc1C [4-Methoxy-3-methyl-N-(2-oxo-2-{4-[2-(pyridin-3-ylcarbamoyl)-phenyl]-piperazin-1-yl}-ethyl)-benzamide] | –
– | CCOc1ccc(-n2c(C(C)N(Cc3cccnc3)C(=O)Cc3ccc(F)c(C(F)(F)F)c3)nc3ncccc3c2=O)cc1 (centres unmarked) [NBI-74330] | significantly attenuated atherosclerotic lesion formation
13 nM | COc1cc(NC(=O)c2ccccc2N2CCN(C(=O)CN3CCCCC3=O)[C@@H](C)C2)ccn1 [N-(2-Methoxy-pyridin-4-yl)-2-{(S)-3-methyl-4-[2-(2-oxo-piperidin-1-yl)-acetyl]-piperazin-1-yl}-benzamide] | –
8.4 nM | O=C(Nc1cnc2ccccc2c1)c1ccccc1N1CCN(C(=O)Cn2ccc3cccnc32)CC1 [2-[4-(2-Pyrrolo[2,3-b]pyridin-1-yl-acetyl)-piperazin-1-yl]-N-quinolin-3-yl-benzamide] | –
4.2 nM | Cc1cc(C)n(CC(=O)N2CCN(c3ccccc3NC(=O)c3cccc(Cl)c3)CC2)n1 [3-Chloro-N-(2-{4-[2-(3,5-dimethyl-pyrazol-1-yl)-acetyl]-piperazin-1-yl}-phenyl)-benzamide] | –
8.8 nM | Cc1cc(C)n(CC(=O)N2CCN(c3ccccc3C(=O)Nc3ccc(S(C)(=O)=O)cc3)CC2)n1 [2-{4-[2-(3,5-Dimethyl-pyrazol-1-yl)-acetyl]-piperazin-1-yl}-N-(4-methanesulfonyl-phenyl)-benzamide] | –
5 nM | Cc1cc(C)n(CC(=O)N2CCN(c3ccccc3C(=O)Nc3cnc(C(F)(F)F)nc3)CC2)n1 [2-{4-[2-(3,5-Dimethyl-pyrazol-1-yl)-acetyl]-piperazin-1-yl}-N-(2-trifluoromethyl-pyrimidin-5-yl)-benzamide] | –
23 nM | Cc1cc(C)n(CC(=O)N2CCN(c3ncc(Cl)cc3NC(=O)c3ccc(S(C)(=O)=O)cc3)CC2)n1 [N-(5-Chloro-2-{4-[2-(3,5-dimethyl-pyrazol-1-yl)-acetyl]-piperazin-1-yl}-pyridin-3-yl)-4-methanesulfonyl-benzamide] | –
19 nM | O=C(Nc1ccncc1)c1ccccc1N1CCN(C(=O)CNc2ccccc2)CC1 [2-[4-(2-Phenylamino-acetyl)-piperazin-1-yl]-N-pyridin-4-yl-benzamide] | –
7.2 nM | Cc1nn(CC(=O)N2CCN(c3ncc(Cl)cc3NC(=O)c3cccc(C(F)(F)F)c3)CC2)c(C)c1Cl | –
9.7 nM | Cc1cc(C)n(CC(=O)N2CCN(c3ccccc3C(=O)Nc3nc4c(s3)CN(C)CC4)CC2)n1 [2-{4-[2-(3,5-Dimethyl-pyrazol-1-yl)-acetyl]-piperazin-1-yl}-N-(5-methyl-4,5,6,7-tetrahydro-thiazolo[5,4-c]pyridin-2-yl)-benzamide] | –
8.9 nM | Cc1cc(C)n(CC(=O)N2CCN(c3ccccc3C(=O)Nc3cc(C(C)(C)C)no3)CC2)n1 [N-(3-tert-Butyl-isoxazol-5-yl)-2-{4-[2-(3,5-dimethyl-pyrazol-1-yl)-acetyl]-piperazin-1-yl}-benzamide] | –
8.5 nM | COc1cc(NC(=O)c2ccccc2N2CCN(C(=O)Cn3nc(C)cc3C)CC2)ccn1 [2-{4-[2-(3,5-Dimethyl-pyrazol-1-yl)-acetyl]-piperazin-1-yl}-N-(2-methoxy-pyridin-4-yl)-benzamide] | –
21 nM | COc1cc(NC(=O)c2ccccc2N2CCN(C(=O)Cn3nc(C)cc3C)[C@@H](C)C2)ccn1 [2-{(S)-4-[2-(3,5-Dimethyl-pyrazol-1-yl)-acetyl]-3-methyl-piperazin-1-yl}-N-(2-methoxy-pyridin-4-yl)-benzamide] | –
1.3 nM | O=C(Nc1cncc(F)c1)c1ccccc1N1CCN(C(=O)Cn2ccc3ccncc32)CC1 [N-(5-Fluoro-pyridin-3-yl)-2-[4-(2-pyrrolo[2,3-c]pyridin-1-yl-acetyl)-piperazin-1-yl]-benzamide] | –
5.9 nM | COc1ccc(NC(=O)c2ccccc2N2CCN(C(=O)Cn3nc(C)cc3C)CC2)cn1 [2-{4-[2-(3,5-Dimethyl-pyrazol-1-yl)-acetyl]-piperazin-1-yl}-N-(6-methoxy-pyridin-3-yl)-benzamide] | –
7.4 nM | Cc1cc(C)n(CC(=O)N2CCN(c3ccccc3NC(=O)c3cccc(C(F)(F)F)c3)CC2)n1 [N-(2-{4-[2-(3,5-Dimethyl-pyrazol-1-yl)-acetyl]-piperazin-1-yl}-phenyl)-3-trifluoromethyl-benzamide] | –
14 nM | Cc1cc(C)n(CC(=O)N2CCN(c3ccccc3C(=O)Nc3cnc(C)c(F)c3)CC2)n1 [2-{4-[2-(3,5-Dimethyl-pyrazol-1-yl)-acetyl]-piperazin-1-yl}-N-(5-fluoro-6-methyl-pyridin-3-yl)-benzamide] | –
19.5 nM | Cc1cc(C)n(CC(=O)N2CCN(c3ccccc3C(=O)Nc3ccncc3F)CC2)n1 [2-{4-[2-(3,5-Dimethyl-pyrazol-1-yl)-acetyl]-piperazin-1-yl}-N-(3-fluoro-pyridin-4-yl)-benzamide] | –
3.1 nM | Cc1cc(C)n(CC(=O)N2CCN(c3ccccc3C(=O)Nc3cccc(OC(F)(F)F)c3)CC2)n1 [2-{4-[2-(3,5-Dimethyl-pyrazol-1-yl)-acetyl]-piperazin-1-yl}-N-(3-trifluoromethoxy-phenyl)-benzamide] | –
13 nM | Cc1cc(C)n(CC(=O)N2CCN(c3ccccc3C(=O)Nc3nc4c(Cl)cccc4s3)CC2)n1 [N-(4-Chloro-benzothiazol-2-yl)-2-{4-[2-(3,5-dimethyl-pyrazol-1-yl)-acetyl]-piperazin-1-yl}-benzamide] | –
15 nM | Cc1cc(C)n(CC(=O)N2CCN(c3ccccc3NC(=O)c3cccnc3)CC2)n1 [N-(2-{4-[2-(3,5-Dimethyl-pyrazol-1-yl)-acetyl]-piperazin-1-yl}-phenyl)-nicotinamide] | –
13 nM | Cc1nc(C)c(CC(=O)N2CCN(c3ccccc3C(=O)Nc3ccncc3)CC2)s1 [2-{4-[2-(2,4-Dimethyl-thiazol-5-yl)-acetyl]-piperazin-1-yl}-N-pyridin-4-yl-benzamide] | –
